Experimental data reported in ChEMBL document CHEMBL2021770, “Potent and Selective Inhibitors of Long Chain l-2-Hydroxy Acid Oxidase Reduced Blood Pressure in DOCA Salt-Treated Rats” (ACS Med Chem Lett, 2011).
Values belong to the molecule of their own block, whether it stands above or below them.

Experiments:
[1] = target: T1, 2-Hydroxyacid oxidase 2 (Rattus norvegicus) (UniProt Q07523); assay: Inhibition of rat His6-tagged Hao2 expressed in Escherichia coli BL21/DE3 using 2-hydroxyoctanoic acid as substrate at 10 uM measured every 10 secs by spectrophotometry
T1 sequence (whole entry): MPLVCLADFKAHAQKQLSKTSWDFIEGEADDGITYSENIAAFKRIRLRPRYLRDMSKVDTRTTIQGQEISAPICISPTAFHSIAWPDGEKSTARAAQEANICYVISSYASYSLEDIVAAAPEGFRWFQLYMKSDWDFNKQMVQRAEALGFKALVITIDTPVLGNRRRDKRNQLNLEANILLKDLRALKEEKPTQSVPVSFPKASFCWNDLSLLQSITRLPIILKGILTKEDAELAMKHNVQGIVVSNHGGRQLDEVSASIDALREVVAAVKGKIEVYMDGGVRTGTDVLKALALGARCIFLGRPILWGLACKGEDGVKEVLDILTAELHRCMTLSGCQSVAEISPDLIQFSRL

2-Hydroxyacid oxidase 2 = target: T2, 2-Hydroxyacid oxidase 2 (Rattus norvegicus, UniProt Q07523); assay: Inhibition of rat His6-tagged Hao2 expressed in Escherichia coli BL21/DE3 using 2-hydroxyoctanoic acid as substrate measured every 10 secs by spectrophotometry
T2 sequence (Q07523 whole entry): T1 sequence (whole entry)

Kidney [2] = assay: Drug uptake in Wistar rat kidney at 3 mg/kg, po bid administered for 15 days measured 12 to 15 hrs post-last dose; type: ADME, organism-based; parameters: dose 3 mg/kg, route oral; conditions: in vivo
Kidney [3] = assay: Drug uptake in Wistar rat kidney at 3 mg/kg, po bid administered for 15 days measured 1 hr post-last dose; type: ADME, organism-based; parameters: dose 3 mg/kg, route oral; conditions: in vivo
[4] = Elimination half life in rat at 10 mg/kg, po; type: ADME, organism-based; parameters: dose 10 mg/kg, route oral; conditions: in vivo, read-out: beta t1/2 (converted)
Plasma [5] = assay: Plasma concentration in Wistar rat at 3 mg/kg, po bid administered for 15 days measured 12 to 15 hrs post-last dose; type: ADME, organism-based; parameters: dose 3 mg/kg, route oral; conditions: in vivo
[6] = Drug metabolism in rat liver microsomes assessed as metabolic rate per 0.125 mg/mL protein; type: ADME, Microsome
Cytochrome P450 2D6 = Cytochrome P450 2D6 (Homo sapiens, UniProt P10635); assay: Inhibition of CYP2D6; type: ADME
Cytochrome P450 1A2 = target: T3, Cytochrome P450 1A2 (Homo sapiens, UniProt P05177); assay: Inhibition of CYP1A2; type: ADME
T3 sequence (P05177 whole entry): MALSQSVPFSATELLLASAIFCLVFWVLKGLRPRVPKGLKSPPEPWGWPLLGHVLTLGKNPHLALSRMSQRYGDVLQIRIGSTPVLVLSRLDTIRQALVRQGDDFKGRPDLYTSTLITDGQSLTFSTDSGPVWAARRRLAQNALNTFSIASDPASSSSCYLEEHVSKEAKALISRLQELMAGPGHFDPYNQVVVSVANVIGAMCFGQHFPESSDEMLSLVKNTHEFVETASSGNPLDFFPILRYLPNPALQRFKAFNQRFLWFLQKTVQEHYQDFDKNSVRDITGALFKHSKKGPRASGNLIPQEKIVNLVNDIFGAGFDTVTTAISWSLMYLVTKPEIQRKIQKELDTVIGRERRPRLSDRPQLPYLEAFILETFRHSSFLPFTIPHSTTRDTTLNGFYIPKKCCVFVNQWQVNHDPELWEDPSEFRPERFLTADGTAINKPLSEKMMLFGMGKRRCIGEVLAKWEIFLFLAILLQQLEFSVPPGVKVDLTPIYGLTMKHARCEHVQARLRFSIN

[7] = Plasma concentration in Wistar rat at 30 mg/kg, po bid administered for 15 days measured 1 hr post-last dose; type: ADME, organism-based; parameters: dose 30 mg/kg, route oral
Cytochrome P450 3A4 = Cytochrome P450 3A4 (Homo sapiens, UniProt P08684); assay: Inhibition of CYP3A4; type: ADME
[8] = AUC (0 to 8 hrs) in rat at 10 mg/kg, po; type: ADME, organism-based; parameters: time < 8 hr, dose 10 mg/kg, route oral; conditions: plasma
[9] = Plasma concentration in Wistar rat at 3 mg/kg, po bid administered for 15 days measured 1 hr post-last dose; type: ADME, organism-based; parameters: dose 3 mg/kg, route oral
[10] = Plasma protein binding in rat; type: ADME, cell-free; conditions: read-out: PPB
[11] = Cmax in rat at 10 mg/kg, po; type: ADME, organism-based; parameters: dose 10 mg/kg, route oral; conditions: in vivo
Cytochrome P450 2C19 = Cytochrome P450 2C19 (Homo sapiens, UniProt P33261); assay: Inhibition of CYP2C19; type: ADME
[12] = AUC (0 to 8 hrs) in rat at 1 mg/kg, iv; type: ADME, organism-based; parameters: time < 8 hr, dose 1 mg/kg, route intravenous; conditions: plasma
Cytochrome P450 2C9 = Cytochrome P450 2C9 (Homo sapiens, UniProt P11712); assay: Inhibition of CYP2C9; type: ADME
[13] = Tmax in rat at 10 mg/kg, po; type: ADME, organism-based; parameters: dose 10 mg/kg, route oral; conditions: in vivo
[14] = Oral bioavailability in rat at 10 mg/kg; type: ADME, organism-based; conditions: in vivo
[15] = Clearance in rat at 1 mg/kg, iv; type: ADME, organism-based; parameters: dose 1 mg/kg, route intravenous; conditions: in vivo
[16] = Induction of cytochrome P450 at 10 uM; type: ADME
Plasma [17] = assay: Plasma concentration in Wistar rat at 30 mg/kg, po bid administered for 15 days measured 12 to 15 hrs post-last dose; type: ADME, organism-based; parameters: dose 30 mg/kg, route oral; conditions: in vivo
Kidney [18] = assay: Drug uptake in Wistar rat kidney at 30 mg/kg, po bid administered for 15 days measured 1 hr post-last dose; type: ADME, organism-based; parameters: dose 30 mg/kg, route oral; conditions: in vivo
[19] = target: T4, Nuclear receptor subfamily 1 group I member 2 (Homo sapiens, UniProt O75469); assay: Induction of PXR at 100 uM
T4 sequence (O75469 whole entry): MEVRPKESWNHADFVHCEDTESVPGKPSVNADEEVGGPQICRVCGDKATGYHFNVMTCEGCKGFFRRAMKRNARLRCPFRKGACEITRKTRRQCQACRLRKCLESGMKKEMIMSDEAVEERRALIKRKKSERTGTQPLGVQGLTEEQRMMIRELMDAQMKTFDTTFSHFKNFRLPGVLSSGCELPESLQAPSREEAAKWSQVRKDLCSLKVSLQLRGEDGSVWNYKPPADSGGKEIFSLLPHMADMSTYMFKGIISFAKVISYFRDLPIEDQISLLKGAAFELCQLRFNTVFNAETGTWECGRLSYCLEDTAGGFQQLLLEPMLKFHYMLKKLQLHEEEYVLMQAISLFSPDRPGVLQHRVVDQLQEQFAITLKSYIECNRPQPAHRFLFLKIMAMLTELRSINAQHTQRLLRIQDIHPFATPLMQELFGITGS

[20] = Elimination half life in rat at 1 mg/kg, iv; type: ADME, organism-based; parameters: dose 1 mg/kg, route intravenous; conditions: in vivo, read-out: beta t1/2 (converted)
[21] = Volume of distribution at steady state in rat at 1 mg/kg, iv; type: ADME, organism-based; parameters: dose 1 mg/kg, route intravenous; conditions: in vivo, read-out: Vdss

Chain of Cytochrome P450 2D6 (P10635 whole entry): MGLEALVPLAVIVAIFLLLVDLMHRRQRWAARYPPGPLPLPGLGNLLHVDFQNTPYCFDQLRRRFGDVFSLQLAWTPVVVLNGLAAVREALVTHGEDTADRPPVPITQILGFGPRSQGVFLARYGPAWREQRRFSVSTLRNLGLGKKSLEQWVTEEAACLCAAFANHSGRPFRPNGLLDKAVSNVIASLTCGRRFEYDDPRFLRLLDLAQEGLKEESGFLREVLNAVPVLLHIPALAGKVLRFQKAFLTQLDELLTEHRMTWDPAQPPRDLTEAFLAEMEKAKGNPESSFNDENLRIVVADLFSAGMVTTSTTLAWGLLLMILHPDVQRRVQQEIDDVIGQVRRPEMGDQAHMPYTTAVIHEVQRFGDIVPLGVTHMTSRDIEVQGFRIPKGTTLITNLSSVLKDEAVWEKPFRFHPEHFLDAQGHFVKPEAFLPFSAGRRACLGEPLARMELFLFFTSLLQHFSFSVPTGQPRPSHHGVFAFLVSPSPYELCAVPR
Chain of Cytochrome P450 2C9 (P11712 whole entry): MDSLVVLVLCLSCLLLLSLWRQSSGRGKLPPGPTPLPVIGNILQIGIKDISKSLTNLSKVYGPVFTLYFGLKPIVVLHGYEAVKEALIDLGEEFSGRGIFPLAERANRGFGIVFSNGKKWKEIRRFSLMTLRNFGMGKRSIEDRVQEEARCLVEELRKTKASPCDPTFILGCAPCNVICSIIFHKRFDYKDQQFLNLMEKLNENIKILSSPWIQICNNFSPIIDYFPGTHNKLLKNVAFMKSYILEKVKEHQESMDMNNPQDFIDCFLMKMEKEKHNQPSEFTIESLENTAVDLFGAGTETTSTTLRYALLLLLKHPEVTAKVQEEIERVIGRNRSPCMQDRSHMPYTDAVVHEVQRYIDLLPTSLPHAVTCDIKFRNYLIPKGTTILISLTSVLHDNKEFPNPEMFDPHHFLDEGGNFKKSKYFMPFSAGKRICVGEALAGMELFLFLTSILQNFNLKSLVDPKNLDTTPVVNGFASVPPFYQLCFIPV
Chain of Cytochrome P450 2C19 (P33261 whole entry): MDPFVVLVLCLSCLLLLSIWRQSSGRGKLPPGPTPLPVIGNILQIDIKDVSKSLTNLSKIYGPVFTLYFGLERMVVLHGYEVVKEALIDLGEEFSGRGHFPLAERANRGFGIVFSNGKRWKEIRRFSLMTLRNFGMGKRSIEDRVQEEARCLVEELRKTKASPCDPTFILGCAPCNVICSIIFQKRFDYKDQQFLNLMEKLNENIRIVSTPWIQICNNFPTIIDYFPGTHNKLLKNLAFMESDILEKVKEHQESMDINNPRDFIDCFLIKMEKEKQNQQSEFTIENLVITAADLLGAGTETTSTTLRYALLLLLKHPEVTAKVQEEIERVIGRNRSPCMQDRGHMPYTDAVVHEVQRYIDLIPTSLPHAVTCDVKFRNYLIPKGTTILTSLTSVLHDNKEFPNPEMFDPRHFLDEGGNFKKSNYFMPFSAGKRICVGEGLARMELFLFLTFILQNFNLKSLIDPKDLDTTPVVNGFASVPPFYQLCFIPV
Chain of Cytochrome P450 3A4 (P08684 whole entry): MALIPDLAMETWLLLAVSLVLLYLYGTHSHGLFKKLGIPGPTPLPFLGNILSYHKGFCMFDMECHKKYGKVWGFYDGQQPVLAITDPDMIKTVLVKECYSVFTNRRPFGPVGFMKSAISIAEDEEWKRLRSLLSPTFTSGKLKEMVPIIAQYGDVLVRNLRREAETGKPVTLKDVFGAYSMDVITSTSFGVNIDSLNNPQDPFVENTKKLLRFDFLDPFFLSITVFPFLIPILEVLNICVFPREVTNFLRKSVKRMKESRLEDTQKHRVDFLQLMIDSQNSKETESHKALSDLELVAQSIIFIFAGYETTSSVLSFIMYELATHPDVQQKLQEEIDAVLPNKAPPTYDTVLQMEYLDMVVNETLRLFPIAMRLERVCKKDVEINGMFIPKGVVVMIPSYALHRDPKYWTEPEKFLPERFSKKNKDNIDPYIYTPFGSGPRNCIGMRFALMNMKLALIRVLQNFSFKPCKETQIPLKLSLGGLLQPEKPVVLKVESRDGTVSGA

inhibition [1]: 35%
SMILES: Cc1n[nH]c(C(=O)O)c1-c1ccc(F)cc1

IC50 (2-Hydroxyacid oxidase 2): 4.27 µM
SMILES: Cc1[nH]nc(C(=O)O)c1CCc1ccccc1

Drug uptake (Kidney [2]): 13 nmol/g | Drug uptake (Kidney [3]): 34 nmol/g | half-life [4]: 4.1 h | concentration (Plasma [5]): 12 µM | Drug metabolism [6]: 0.02 nmol/min/mg | IC50 (Cytochrome P450 2D6): > 10 µM | IC50 (Cytochrome P450 1A2): > 10 µM | concentration at 1 h [7]: 157 µM | IC50 (Cytochrome P450 3A4): > 10 µM | AUC(0-t) at 8 h [8]: 517 µM·h | concentration at 1 h [9]: 48 µM | fraction unbound [10]: < 0.01 | Cmax [11]: 134 µM | IC50 (Cytochrome P450 2C19): > 10 µM | AUC(0-t) at 8 h [12]: 97 µM·h | IC50 (Cytochrome P450 2C9): > 10 µM | Tmax [13]: 0.25 h | bioavailability [14]: 53% | clearance [15]: 0.52 mL/min/kg | Activity [16]: Not Active | concentration (Plasma [17]): 86 µM | Drug uptake (Kidney [18]): 113 nmol/g | Activity [19]: Not Active | half-life [20]: 3.7 h | Vd [21]: 0.14 L/kg | IC50 (2-Hydroxyacid oxidase 2): 0.3 µM
SMILES: Cc1[nH]nc(C(=O)O)c1Cc1cc2ccccc2s1

IC50 (2-Hydroxyacid oxidase 2): 0.91 µM
SMILES: Cc1[nH]nc(C(=O)O)c1CCc1ccc(-c2ccccc2)cc1
